The text below walks through data of patent publication EP0394314B2, “MULTIPLE STEP ENTRAPMENT/LOADING PROCEDURE FOR PREPARING […]-[…]” (VESTAR, INC., priority 1987, dated 1989).

Structures can show the parent of a compound that is named as a salt.

Series [1] can be described thus: Toxicity of doxorubicin vesicles versus free drug, intravenous tests in mice. Format: in vivo. The note with it: 20 mg/kg or equivalent dose. From the text: In nearly all instances of vesicle-entrapped doxorubicin reported in the literature, the loaded vesicles are less toxic than the free drug.
Doxorubicin vesicles can also be prepared with citric acid.

The nature of series [2]: Maximum tolerated dose of a single intravenous dose. The note with it: mouse, in vivo, CD2F1 mice, vesicles normalized to the hydrochloride, read-out: maximum tolerated dose (MTD, non-lethal). How it is done: This compares to an MTD of about 40 mg/kg (normalized to the hydrochloride) for doxorubicin vesicles prepared as described in Example III. In contrast, the MTD for doxorubicin vesicles, when prepared as described in Example III with the exception that citric acid was substituted for lactobionic acid, was only about 10 mg/kg, less than the MTD for the free drug.

Series [3] concerns White blood cell (w.b.c.) counts. The experiment in a line: White blood cell counts after doxorubicin treatment. Format: in vivo, CD2F1 mice. Particulars: doxorubicin dose 40 mg/kg (for the equivalent hydrochloride); four days post therapy. The protocol:
White blood cell (w.b.c.) counts were performed on CD2F1 mice receiving doxorubicin doses of 40 mg/kg (for the equivalent hydrochloride). Mice receiving free drug experienced severe depression in w.b.c. counts: at four days post therapy, counts were only 8.5% of pretherapy values. In contrast, mice treated with doxorubicin vesicles prepared in accordance with this invention (Example III) at the same doxorubicin dosage experienced only moderate suppression in w.b.c. counts: at four days post therapy, counts were 75% of pretherapy values.

Regarding `COc1cccc2c1C(=O)c1c(O)c3c(c(O)c1C2=O)C[C@@](O)(C(=O)CO)C[C@@H]3O[C@H]1C[C@H](N)[C@H](O)[C@H](C)O1` [doxorubicin hydrochloride], the tolerance of dose entry in series [1] was “tolerated”. In series [2], the MTD (in general, the largest dose that counted as tolerated) was roughly 25 mg/kg. For the same compound, the “w.b.c. counts, % of pretherapy values” in series [3] turned out to be 8.5%.
